Reference: publication PMC7826463, “Pamiparib dose escalation in Chinese patients with non‐mucinous high‐grade ovarian cancer or advanced triple‐negative breast cancer” (Cancer Medicine, 2020)

Tested on: Chinese patients with advanced HGOC or TNBC
Test: Safety/tolerability (adverse events per NCI-CTCAE v4.03, DLTs) in phase 1 dose escalation (NCT03333915)
Type: in vivo
Settings: for Discontinued treatment: Adverse event: count (percent)
Excerpt: This phase 1/2, open‐label, multicenter study assessed the safety and antitumor activity of pamiparib in Chinese patients ≥18 years with advanced solid tumors whose disease progressed despite standard therapy or for which there is no standard therapy. Phase 1 was a dose‐escalation study, with a 3 + 3 design, that evaluated the single‐agent safety/tolerability, pharmacokinetic (PK) profile, and preliminary antitumor activity of pamiparib and confirmed the RP2D in Chinese patients (Figure 1). The phase 2 dose‐expansion component of this study is investigating the single‐agent antitumor activity and safety/tolerability of pamiparib.
In phase 1, patients received pamiparib at 20, 40, and 60 mg BID dose levels. The starting dose for pamiparib (20 mg BID) was selected as one‐third of the RP2D (60 mg BID) and one‐fourth of the MTD (80 mg BID), which were determined in the FIH study. […] Safety evaluations, including dose‐limiting toxicities (DLTs), of ≥3 patients completing one cycle of treatment at a specific dose level were required before proceeding to the next cohort with a higher dose level. Patients could continue the study treatment in 21‐day cycles and subsequent cycles at the discretion of the investigator.
The primary objective in phase 1 was to evaluate the safety and tolerability of pamiparib. Safety and tolerability endpoint assessments were based on monitoring of treatment‐emergent adverse events (AEs), in addition to vital signs, electrocardiograms, physical examinations, and clinical laboratory results. The incidence and severity of all AEs and incidence of serious AEs were assessed according to the National Cancer Institute‐Common Terminology Criteria for Adverse Events v4.03.
Approximately 14 to 18 evaluable patients were expected to enroll in the phase 1 part of the study. The safety population included all patients who received ≥1 dose of pamiparib. The PK population included all patients for whom valid pamiparib PK parameters could be estimated. Antitumor activity per RECIST v1.1 was assessed in all evaluable patients. Patients were considered response evaluable if they had measurable disease at baseline per RECIST v1.1 and had ≥1 post‐baseline tumor assessment, unless treatment had been discontinued due to clinical progression or death prior to tumor assessment. The population evaluable for CA‐125 response included patients in the safety population with baseline CA‐125 ≥2 x upper limit of normal.

In the case of C[C@]12CCCN1CC1=NNC(=O)c3cc(F)cc4[nH]c2c1c34 [pamiparib, Pamiparib], the “Treatment-related adverse event Asthenia, All Grades” value (20 mg BID (n = 4)) is reported as 3 (75.0) n (%), the “Treatment-related adverse event Asthenia, Grade ≥3” value (20 mg BID (n = 4)) is reported as 0 n (%) and the “Treatment-related adverse event Decreased appetite, All Grades” value (20 mg BID (n = 4)) is reported as 3 (75.0) n (%). For the same compound, the “Treatment-related adverse event Decreased appetite, Grade ≥3” value (20 mg BID (n = 4)) was 0 n (%), the “Treatment-related adverse event Decreased hemoglobin, All Grades” value (20 mg BID (n = 4)) was 0 n (%) and the “Treatment-related adverse event Decreased hemoglobin, Grade ≥3” value (20 mg BID (n = 4)) was 0 n (%). The “Treatment-related adverse event Decreased neutrophil count, All Grades” value (20 mg BID (n = 4)) was 1 (25.0) n (%), the “Treatment-related adverse event Decreased neutrophil count, Grade ≥3” value (20 mg BID (n = 4)) was 0 n (%) and the “Treatment-related adverse event Decreased platelet count, All Grades” value (20 mg BID (n = 4)) was 0 n (%). For the same compound, the “Treatment-related adverse event Decreased platelet count, Grade ≥3” value (20 mg BID (n = 4)) was 0 n (%), the “Treatment-related adverse event Decreased white blood cell count, All Grades” value (20 mg BID (n = 4)) was 2 (50.0) n (%) and the “Treatment-related adverse event Decreased white blood cell count, Grade ≥3” value (20 mg BID (n = 4)) was 0 n (%). For the same compound, the “Treatment-related adverse event Diarrhea, All Grades” value (20 mg BID (n = 4)) was 0 n (%), the “Treatment-related adverse event Diarrhea, Grade ≥3” value (20 mg BID (n = 4)) was 0 n (%) and the “Treatment-related adverse event Increased GGT, All Grades” value (20 mg BID (n = 4)) was 1 (25.0) n (%). The “Treatment-related adverse event Increased GGT, Grade ≥3” value (20 mg BID (n = 4)) was 0 n (%), the “Treatment-related adverse event Increased conjugated bilirubin, All Grades” value (20 mg BID (n = 4)) was 1 (25.0) n (%) and the “Treatment-related adverse event Increased conjugated bilirubin, Grade ≥3” value (20 mg BID (n = 4)) was 0 n (%). The “Treatment-related adverse event Nausea, All Grades” value (20 mg BID (n = 4)) was 4 (100.0) n (%), the “Treatment-related adverse event Nausea, Grade ≥3” value (20 mg BID (n = 4)) was 0 n (%) and the “Treatment-related adverse event Prolonged electrocardiogram QT, All Grades” value (20 mg BID (n = 4)) was 1 (25.0) n (%). The “Treatment-related adverse event Prolonged electrocardiogram QT, Grade ≥3” value (20 mg BID (n = 4)) was 1 (25.0) n (%), the “Treatment-related adverse event Somnolence, All Grades” value (20 mg BID (n = 4)) was 1 (25.0) n (%) and the “Treatment-related adverse event Somnolence, Grade ≥3” value (20 mg BID (n = 4)) was 0 n (%). The “Treatment-related adverse event Tachycardia, All Grades” value (20 mg BID (n = 4)) was 0 n (%), the “Treatment-related adverse event Tachycardia, Grade ≥3” value (20 mg BID (n = 4)) was 0 n (%) and the “Treatment-related adverse event Vomiting, All Grades” value (20 mg BID (n = 4)) was 1 (25.0) n (%). The “Treatment-related adverse event Vomiting, Grade ≥3” value (20 mg BID (n = 4)) was 0 n (%), the “Discontinued treatment: Adverse event” value (20 mg BID (n=4)) was 0 and the “Treatment-related adverse event Asthenia, All Grades” value (40 mg BID (n = 4)) was 4 (100.0) n (%). The “Treatment-related adverse event Asthenia, Grade ≥3” value (40 mg BID (n = 4)) was 0 n (%), the “Treatment-related adverse event Decreased appetite, All Grades” value (40 mg BID (n = 4)) was 3 (75.0) n (%) and the “Treatment-related adverse event Decreased appetite, Grade ≥3” value (40 mg BID (n = 4)) was 0 n (%). The “Treatment-related adverse event Decreased hemoglobin, All Grades” value (40 mg BID (n = 4)) was 1 (25.0) n (%), the “Treatment-related adverse event Decreased hemoglobin, Grade ≥3” value (40 mg BID (n = 4)) was 0 n (%) and the “Treatment-related adverse event Decreased neutrophil count, All Grades” value (40 mg BID (n = 4)) was 3 (75.0) n (%). For the same compound, the “Treatment-related adverse event Decreased neutrophil count, Grade ≥3” value (40 mg BID (n = 4)) was 0 n (%), the “Treatment-related adverse event Decreased platelet count, All Grades” value (40 mg BID (n = 4)) was 0 n (%) and the “Treatment-related adverse event Decreased platelet count, Grade ≥3” value (40 mg BID (n = 4)) was 0 n (%). The “Treatment-related adverse event Decreased white blood cell count, All Grades” value (40 mg BID (n = 4)) was 3 (75.0) n (%), the “Treatment-related adverse event Decreased white blood cell count, Grade ≥3” value (40 mg BID (n = 4)) was 0 n (%) and the “Treatment-related adverse event Diarrhea, All Grades” value (40 mg BID (n = 4)) was 1 (25.0) n (%). The “Treatment-related adverse event Diarrhea, Grade ≥3” value (40 mg BID (n = 4)) was 0 n (%), the “Treatment-related adverse event Increased GGT, All Grades” value (40 mg BID (n = 4)) was 1 (25.0) n (%) and the “Treatment-related adverse event Increased GGT, Grade ≥3” value (40 mg BID (n = 4)) was 0 n (%). For the same compound, the “Treatment-related adverse event Increased conjugated bilirubin, All Grades” value (40 mg BID (n = 4)) was 1 (25.0) n (%), the “Treatment-related adverse event Increased conjugated bilirubin, Grade ≥3” value (40 mg BID (n = 4)) was 0 n (%) and the “Treatment-related adverse event Nausea, All Grades” value (40 mg BID (n = 4)) was 3 (75.0) n (%). For the same compound, the “Treatment-related adverse event Nausea, Grade ≥3” value (40 mg BID (n = 4)) was 0 n (%), the “Treatment-related adverse event Prolonged electrocardiogram QT, All Grades” value (40 mg BID (n = 4)) was 1 (25.0) n (%) and the “Treatment-related adverse event Prolonged electrocardiogram QT, Grade ≥3” value (40 mg BID (n = 4)) was 0 n (%). The “Treatment-related adverse event Somnolence, All Grades” value (40 mg BID (n = 4)) was 1 (25.0) n (%), the “Treatment-related adverse event Somnolence, Grade ≥3” value (40 mg BID (n = 4)) was 0 n (%) and the “Treatment-related adverse event Tachycardia, All Grades” value (40 mg BID (n = 4)) was 1 (25.0) n (%). The “Treatment-related adverse event Tachycardia, Grade ≥3” value (40 mg BID (n = 4)) was 0 n (%), the “Treatment-related adverse event Vomiting, All Grades” value (40 mg BID (n = 4)) was 1 (25.0) n (%) and the “Treatment-related adverse event Vomiting, Grade ≥3” value (40 mg BID (n = 4)) was 0 n (%). The “Discontinued treatment: Adverse event” value (40 mg BID (n=4)) was 0, the “Treatment-related adverse event Asthenia, All Grades” value (60 mg BID (n = 7)) was 5 (71.4) n (%) and the “Treatment-related adverse event Asthenia, Grade ≥3” value (60 mg BID (n = 7)) was 0 n (%). For the same compound, the “Treatment-related adverse event Decreased appetite, All Grades” value (60 mg BID (n = 7)) was 3 (42.9) n (%), the “Treatment-related adverse event Decreased appetite, Grade ≥3” value (60 mg BID (n = 7)) was 0 n (%) and the “Treatment-related adverse event Decreased hemoglobin, All Grades” value (60 mg BID (n = 7)) was 5 (71.4) n (%). The “Treatment-related adverse event Decreased hemoglobin, Grade ≥3” value (60 mg BID (n = 7)) was 3 (42.9) n (%), the “Treatment-related adverse event Decreased neutrophil count, All Grades” value (60 mg BID (n = 7)) was 4 (57.1) n (%) and the “Treatment-related adverse event Decreased neutrophil count, Grade ≥3” value (60 mg BID (n = 7)) was 2 (28.6) n (%). For the same compound, the “Treatment-related adverse event Decreased platelet count, All Grades” value (60 mg BID (n = 7)) was 3 (42.9) n (%), the “Treatment-related adverse event Decreased platelet count, Grade ≥3” value (60 mg BID (n = 7)) was 1 (14.3) n (%) and the “Treatment-related adverse event Decreased white blood cell count, All Grades” value (60 mg BID (n = 7)) was 5 (71.4) n (%).
